Measured values as given in US20060270634A1, “Acetal phosphate-derived LPA mimics, PPARgamma activators, and autotaxin inhibitors” (priority 2005, published 2006).
pEC50, pIC50: −log10 of the molar value. Like-named read-outs stand apart in the source and are kept apart here. Values belong to the compound of their own block, whether it stands above or below them.

Columns and labels:
LPA1 = LPA1 (Homo sapiens, UniProt Q92633); experiment: Ca2+ transients in RH7777 cells expressing LPA1 (agonist / inhibition of LPA response); conditions: for LPA1 effect in words: Tables 2, 4, 6; for EC50: LPA1 (nM) EC50, Table 1
LPA2 = LPA2 (Homo sapiens, UniProt Q9HBW0); experiment: Ca2+ transients in RH7777 cells expressing LPA2 (agonist / inhibition of LPA response); conditions: for EC50: LPA2 (nM) EC50, Table 1; for IC50: LPA2 (nM) IC50, Table 1
LPA3 = target: T1, LPA3 (Homo sapiens, UniProt Q9UBY5); experiment: Ca2+ transients in RH7777 cells expressing LPA3 (agonist / inhibition of LPA response)
T1 sequence (Q9UBY5 1-353): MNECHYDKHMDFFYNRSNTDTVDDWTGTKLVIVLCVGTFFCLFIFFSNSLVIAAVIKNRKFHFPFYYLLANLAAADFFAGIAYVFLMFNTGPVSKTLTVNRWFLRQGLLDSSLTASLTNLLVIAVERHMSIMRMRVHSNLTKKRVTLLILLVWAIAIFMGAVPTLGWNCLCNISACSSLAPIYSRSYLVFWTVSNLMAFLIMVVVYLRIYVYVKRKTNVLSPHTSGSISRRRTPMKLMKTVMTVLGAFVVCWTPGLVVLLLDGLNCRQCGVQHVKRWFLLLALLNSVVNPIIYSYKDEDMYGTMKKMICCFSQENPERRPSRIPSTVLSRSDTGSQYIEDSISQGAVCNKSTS

PC3 cells = experiment: Calcium mobilization response in PC3 cells; assay type: cell-based
[1] = read-out: LPA3 IC50, 200 nM LPA

Sequence of LPA2 (Q9HBW0 whole entry, species assumed): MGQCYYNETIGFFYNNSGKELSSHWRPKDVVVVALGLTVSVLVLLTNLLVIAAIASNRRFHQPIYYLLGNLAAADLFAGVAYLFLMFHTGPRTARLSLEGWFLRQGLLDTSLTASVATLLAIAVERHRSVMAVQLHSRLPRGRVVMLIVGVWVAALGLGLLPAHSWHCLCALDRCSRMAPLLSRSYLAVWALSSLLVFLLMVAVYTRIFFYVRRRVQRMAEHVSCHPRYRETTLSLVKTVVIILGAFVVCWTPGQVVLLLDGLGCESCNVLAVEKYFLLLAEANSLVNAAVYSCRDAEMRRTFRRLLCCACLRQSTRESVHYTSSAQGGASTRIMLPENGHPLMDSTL
Sequence of LPA1 (Q92633 whole entry, species assumed): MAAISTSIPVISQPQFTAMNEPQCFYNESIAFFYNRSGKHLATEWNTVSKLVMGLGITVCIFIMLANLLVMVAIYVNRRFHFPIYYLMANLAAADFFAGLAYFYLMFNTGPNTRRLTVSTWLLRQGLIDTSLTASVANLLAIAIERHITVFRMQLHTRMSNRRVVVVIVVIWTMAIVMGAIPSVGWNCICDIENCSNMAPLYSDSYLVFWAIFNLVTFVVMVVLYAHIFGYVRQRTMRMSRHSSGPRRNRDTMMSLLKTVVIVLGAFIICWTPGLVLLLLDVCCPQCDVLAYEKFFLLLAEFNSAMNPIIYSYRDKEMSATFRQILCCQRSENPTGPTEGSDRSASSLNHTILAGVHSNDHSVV

LPA1 effect in words (LPA1): Weak inhibition | pEC50 (LPA2; LPA2 EC50, Table 4): ~5.00 | LPA2 effect in words (LPA2; Table 4): Weak agonist | pIC50 (LPA3; [1]): 5.82
SMILES: CCCCCCCCCCCCCCC(F)(F)P(=O)(O)O

SMILES: CCCCCCCCc1ccc(CCCCCCCOP(O)(O)=S)cc1
pEC50 (LPA1; LPA1 EC50): 5.32 | LPA1 effect in words (LPA1): Partial agonist | pEC50 (LPA2; LPA2 EC50, Table 4): 5.22 | LPA2 effect in words (LPA2; Table 4): full agonist | pEC50 (LPA3): 6.07 | LPA3 effect in words (LPA3; Tables 2, 4, 6): Partial agonist

pEC50 (LPA1): 4.67 | LPA1 effect in words (LPA1): Partial agonist | LPA2 effect in words (LPA2; Table 4): Weak antagonist | pIC50 (LPA3): 5.75
SMILES: CCCCCCCCc1ccc(CCCCCCCOP(=O)(O)O)cc1

pEC50 (LPA1): < 4.52 | IC50 (LPA1; LPA1 (nM) IC50, Table 1): 1110 nM | pIC50 (LPA1; LPA1 IC50, text): 5.96 | pEC50 (LPA2; LPA2 EC50, text): 5.93 | pEC50 (LPA3): < 4.52 | pIC50 (LPA3): 5.54
SMILES: CCCCCCCCCCCCC1OCC(COP(=O)(O)O)O1 (centres unmarked) [Analog 4]

SMILES: CCCCCCCC/C=C\CCCCCCCC1OCC(COP(=O)([O-])O)O1.[K+] (centres unmarked) [Analog 5]
LPA2 agonist/antagonist activity in words (LPA2): full LPA2 agonist | EC50 (LPA2): 68 nM | pEC50 (LPA3): < 4.52 | pIC50 (LPA3): 6.28 | LPA3 agonist/antagonist activity in words (LPA3): LPA1/3 antagonist

SMILES: CCCCCCCC/C=C\CCCCCCCC1OCC(COP([O-])(O)=S)O1.[K+] (centres unmarked) [Analog 6]
pIC50 (LPA1): < 4.52 | LPA1 agonist/antagonist activity in words (LPA1): pan-agonists | EC50 (LPA1): 981 nM | LPA2 agonist/antagonist activity in words (LPA2): pan-agonists | EC50 (LPA2): 34 nM | pEC50 (LPA3): 6.19 | pIC50 (LPA3): < 4.52 | LPA3 agonist/antagonist activity in words (LPA3): pan-agonists

SMILES: CCCCCCCC/C=C\CCCCCCCC1OCC(COP(=O)([O-])O)O1.[K+] (centres unmarked) [Analog 13, 2-Heptadec-8-enyl-(1,3)dioxolan-4yl methyl dipotassium phosphate]
pIC50 (PC3 cells; Homo sapiens, PC-3, read-out: PC3 cells IC50): 5.82 | pIC50 (PC3 cells; read-out: PC3 cells IC50, listed as 18:1 Δ 9 acetal phosphate): 5.98 | LPA2 effect in words (LPA2; *transient): full agonist | pEC50 (LPA2; LPA2 EC50, *transient): 7.17 | pIC50 (LPA2; RH-LPA2 cells IC50, inhibition of 200 nM LPA response): 6.34 | pIC50 (LPA2; RH-LPA2 cells IC50, inhibition of 300 nM LPA response): 6.11 | pIC50 (LPA3; [1]): 6.28

SMILES: CCCCCCCCc1ccc(CCCCCCC2OCC(COP(=O)(O)O)O2)cc1 (centres unmarked) [Analog 14]
pIC50 (LPA1): 5.33 | EC50 (LPA1): > 30000 nM | pIC50 (LPA2): < 4.52 | EC50 (LPA2): > 30000 nM | pEC50 (LPA3): 6.16 | pIC50 (LPA3): < 4.52

SMILES: CCCCCCCCc1ccc(CCCCCCC2OCC(COP([O-])(O)=S)O2)cc1.[K+] (centres unmarked) [Analog 15]
LPA1 agonist/antagonist activity in words (LPA1): no effect | EC50 (LPA1): > 30000 nM | pIC50 (LPA2): < 4.52 | LPA2 agonist/antagonist activity in words (LPA2): no effect | EC50 (LPA2): > 30000 nM | pEC50 (LPA3): < 4.52 | pIC50 (LPA3): 6.30 | LPA3 agonist/antagonist activity in words (LPA3): sub-type selective LPA3 antagonist

EC50 (LPA2): > 10000 nM | IC50 (LPA2): > 30000 nM | pEC50 (LPA3): < 4.52 | pIC50 (LPA3): 6.32
SMILES: CCCCCCCC/C=C\CCCCCCC[C@@H]1OC[C@H](COP(=O)(O)O)O1 [Analog 21]

SMILES: CCCCCCCC/C=C\CCCCCCC[C@@H]1OC[C@H](COP(O)(O)=S)O1 [Analog 22]
pIC50 (LPA2): < 4.52 | EC50 (LPA2): 1540 nM | pEC50 (LPA3): 6.69 | pIC50 (LPA3): < 4.52

EC50 (LPA2): > 30000 nM | IC50 (LPA2): > 30000 nM
SMILES: CCCCCCCC/C=C\CCCCCCC[C@H]1OC[C@H](COP(=O)(O)O)O1 [Analog 23]

SMILES: CCCCCCCC/C=C\CCCCCCC[C@H]1OC[C@H](COP(O)(O)=S)O1 [Analog 24]
pIC50 (LPA2): < 4.52 | EC50 (LPA2): 1320 nM

EC50 (LPA2): 1170 nM | IC50 (LPA2): > 30000 nM
SMILES: CCCCCCCC/C=C\CCCCCCC[C@H]1OC[C@@H](COP(=O)(O)O)O1 [Analog 25]
